The NIST ThermoML archive (doi:10.1016/j.fluid.2008.09.022)
± gives the expanded uncertainty stated by the source.

Experiment: relative permittivity at various frequencies (dimensionless)
Conditions: Liquid, Frequency=0.01 MHz, Parallel plate capacitor

CC(F)(F)F [1,1,1-trifluoroethane]
relative permittivity (218.12 K, 2000 kPa): 16.968 ± 0.035 | relative permittivity (218.13 K, 3000 kPa): 17.006 ± 0.035 | relative permittivity (218.16 K, 4000 kPa): 17.043 ± 0.035 | relative permittivity (218.17 K, 5000 kPa): 17.076 ± 0.035 | relative permittivity (218.18 K, 11000 kPa): 17.303 ± 0.034 | relative permittivity (218.19 K, 6000 kPa): 17.111 ± 0.035 | relative permittivity (218.21 K, 7000 kPa): 17.147 ± 0.034 | relative permittivity (218.22 K, 10000 kPa): 17.264 ± 0.034 | relative permittivity (218.23 K, 8000 kPa): 17.184 ± 0.034 | relative permittivity (218.23 K, 9000 kPa): 17.224 ± 0.035 | relative permittivity (218.24 K, 12000 kPa): 17.326 ± 0.034 | relative permittivity (218.43 K, 13000 kPa): 17.338 ± 0.034 | relative permittivity (218.45 K, 14000 kPa): 17.37 ± 0.034 | relative permittivity (218.48 K, 15000 kPa): 17.403 ± 0.034 | relative permittivity (223.96 K, 15000 kPa): 16.732 ± 0.034 | relative permittivity (223.97 K, 13000 kPa): 16.66 ± 0.034 | relative permittivity (223.97 K, 14000 kPa): 16.696 ± 0.034 | relative permittivity (223.98 K, 12000 kPa): 16.622 ± 0.034 | relative permittivity (224 K, 2000 kPa): 16.227 ± 0.034 | relative permittivity (224 K, 3000 kPa): 16.267 ± 0.034 | relative permittivity (224 K, 4000 kPa): 16.308 ± 0.034 | relative permittivity (224 K, 5000 kPa): 16.349 ± 0.034 | relative permittivity (224 K, 6000 kPa): 16.389 ± 0.034 | relative permittivity (224 K, 7000 kPa): 16.432 ± 0.034 | relative permittivity (224 K, 8000 kPa): 16.486 ± 0.034 | relative permittivity (224 K, 9000 kPa): 16.506 ± 0.034 | relative permittivity (224 K, 10000 kPa): 16.547 ± 0.034 | relative permittivity (224 K, 11000 kPa): 16.582 ± 0.034 | relative permittivity (232.97 K, 14000 kPa): 15.659 ± 0.033 | relative permittivity (232.97 K, 15000 kPa): 15.697 ± 0.033 | relative permittivity (232.98 K, 13000 kPa): 15.622 ± 0.033 | relative permittivity (232.99 K, 9000 kPa): 15.465 ± 0.033 | relative permittivity (232.99 K, 10000 kPa): 15.503 ± 0.033 | relative permittivity (232.99 K, 12000 kPa): 15.581 ± 0.033 | relative permittivity (233 K, 6000 kPa): 15.343 ± 0.033 | relative permittivity (233 K, 7000 kPa): 15.387 ± 0.033 | relative permittivity (233 K, 8000 kPa): 15.424 ± 0.033 | relative permittivity (233 K, 11000 kPa): 15.543 ± 0.033 | relative permittivity (233.01 K, 2000 kPa): 15.164 ± 0.033 | relative permittivity (233.01 K, 3000 kPa): 15.207 ± 0.033 | relative permittivity (233.01 K, 4000 kPa): 15.253 ± 0.033 | relative permittivity (233.01 K, 5000 kPa): 15.298 ± 0.033 | relative permittivity (243.15 K, 14000 kPa): 14.59 ± 0.031 | relative permittivity (243.15 K, 15000 kPa): 14.629 ± 0.031 | relative permittivity (243.16 K, 2000 kPa): 14.061 ± 0.032 | relative permittivity (243.16 K, 3000 kPa): 14.108 ± 0.032 | relative permittivity (243.16 K, 4000 kPa): 14.158 ± 0.032 | relative permittivity (243.16 K, 5000 kPa): 14.203 ± 0.032 | relative permittivity (243.16 K, 6000 kPa): 14.254 ± 0.032 | relative permittivity (243.16 K, 7000 kPa): 14.298 ± 0.032 | relative permittivity (243.16 K, 9000 kPa): 14.386 ± 0.032 | relative permittivity (243.16 K, 10000 kPa): 14.43 ± 0.031 | relative permittivity (243.16 K, 11000 kPa): 14.469 ± 0.031 | relative permittivity (243.16 K, 12000 kPa): 14.51 ± 0.031 | relative permittivity (243.16 K, 13000 kPa): 14.552 ± 0.031 | relative permittivity (243.17 K, 8000 kPa): 14.34 ± 0.032 | relative permittivity (253.13 K, 2000 kPa): 13.05 ± 0.031 | relative permittivity (253.13 K, 6000 kPa): 13.264 ± 0.031 | relative permittivity (253.13 K, 8000 kPa): 13.362 ± 0.03 | relative permittivity (253.13 K, 9000 kPa): 13.407 ± 0.03 | relative permittivity (253.13 K, 15000 kPa): 13.669 ± 0.03 | relative permittivity (253.14 K, 3000 kPa): 13.106 ± 0.031 | relative permittivity (253.14 K, 4000 kPa): 13.16 ± 0.031 | relative permittivity (253.14 K, 5000 kPa): 13.209 ± 0.031 | relative permittivity (253.14 K, 7000 kPa): 13.311 ± 0.031 | relative permittivity (253.14 K, 10000 kPa): 13.455 ± 0.03 | relative permittivity (253.14 K, 11000 kPa): 13.5 ± 0.03 | relative permittivity (253.14 K, 12000 kPa): 13.543 ± 0.03 | relative permittivity (253.14 K, 14000 kPa): 13.628 ± 0.03 | relative permittivity (253.15 K, 13000 kPa): 13.585 ± 0.03 | relative permittivity (263.02 K, 2000 kPa): 12.145 ± 0.03 | relative permittivity (263.02 K, 12000 kPa): 12.685 ± 0.029 | relative permittivity (263.02 K, 13000 kPa): 12.733 ± 0.029 | relative permittivity (263.03 K, 3000 kPa): 12.203 ± 0.03 | relative permittivity (263.03 K, 4000 kPa): 12.264 ± 0.03 | relative permittivity (263.03 K, 6000 kPa): 12.379 ± 0.03 | relative permittivity (263.03 K, 7000 kPa): 12.431 ± 0.03 | relative permittivity (263.03 K, 8000 kPa): 12.485 ± 0.03 | relative permittivity (263.03 K, 10000 kPa): 12.586 ± 0.029 | relative permittivity (263.03 K, 11000 kPa): 12.636 ± 0.029 | relative permittivity (263.03 K, 14000 kPa): 12.777 ± 0.029 | relative permittivity (263.03 K, 15000 kPa): 12.821 ± 0.029 | relative permittivity (263.04 K, 5000 kPa): 12.319 ± 0.03 | relative permittivity (263.04 K, 9000 kPa): 12.536 ± 0.029 | relative permittivity (274.42 K, 2000 kPa): 11.141 ± 0.029 | relative permittivity (274.42 K, 3000 kPa): 11.215 ± 0.029 | relative permittivity (274.42 K, 4000 kPa): 11.284 ± 0.029 | relative permittivity (274.43 K, 5000 kPa): 11.346 ± 0.029 | relative permittivity (274.43 K, 6000 kPa): 11.411 ± 0.028 | relative permittivity (274.43 K, 7000 kPa): 11.471 ± 0.028 | relative permittivity (274.43 K, 9000 kPa): 11.588 ± 0.028 | relative permittivity (274.43 K, 10000 kPa): 11.644 ± 0.028 | relative permittivity (274.43 K, 12000 kPa): 11.749 ± 0.028 | relative permittivity (274.44 K, 8000 kPa): 11.528 ± 0.028 | relative permittivity (274.44 K, 11000 kPa): 11.696 ± 0.028 | relative permittivity (274.44 K, 13000 kPa): 11.798 ± 0.028 | relative permittivity (274.44 K, 14000 kPa): 11.846 ± 0.028 | relative permittivity (274.44 K, 15000 kPa): 11.895 ± 0.028 | relative permittivity (283.16 K, 2000 kPa): 10.568 ± 0.029 | relative permittivity (283.16 K, 3000 kPa): 10.641 ± 0.029 | relative permittivity (283.16 K, 4000 kPa): 10.72 ± 0.028 | relative permittivity (283.16 K, 5000 kPa): 10.796 ± 0.028 | relative permittivity (283.17 K, 6000 kPa): 10.867 ± 0.028 | relative permittivity (283.17 K, 7000 kPa): 10.936 ± 0.028 | relative permittivity (283.17 K, 8000 kPa): 11.002 ± 0.028 | relative permittivity (283.17 K, 9000 kPa): 11.066 ± 0.028 | relative permittivity (283.18 K, 10000 kPa): 11.125 ± 0.028 | relative permittivity (283.18 K, 11000 kPa): 11.183 ± 0.028 | relative permittivity (283.18 K, 12000 kPa): 11.239 ± 0.028 | relative permittivity (283.19 K, 13000 kPa): 11.293 ± 0.028 | relative permittivity (283.19 K, 14000 kPa): 11.346 ± 0.028 | relative permittivity (283.2 K, 15000 kPa): 11.397 ± 0.027 | relative permittivity (294.1 K, 2000 kPa): 9.617 ± 0.03 | relative permittivity (294.1 K, 3000 kPa): 9.7189 ± 0.029 | relative permittivity (294.11 K, 4000 kPa): 9.8137 ± 0.029 | relative permittivity (294.11 K, 5000 kPa): 9.9019 ± 0.029 | relative permittivity (294.11 K, 6000 kPa): 9.9864 ± 0.029 | relative permittivity (294.11 K, 7000 kPa): 10.066 ± 0.029 | relative permittivity (294.11 K, 9000 kPa): 10.213 ± 0.029 | relative permittivity (294.11 K, 10000 kPa): 10.281 ± 0.029 | relative permittivity (294.11 K, 11000 kPa): 10.347 ± 0.029 | relative permittivity (294.11 K, 15000 kPa): 10.585 ± 0.028 | relative permittivity (294.12 K, 8000 kPa): 10.141 ± 0.029 | relative permittivity (294.12 K, 12000 kPa): 10.409 ± 0.028 | relative permittivity (294.12 K, 13000 kPa): 10.469 ± 0.028 | relative permittivity (294.12 K, 14000 kPa): 10.526 ± 0.028
